# In patent US6410523B1, “Vitamin D derivatives substituted at the 2beta-position” (Chugai Seiyaku Kabushiki Kaisha, priority 1998, dated 2002):
# Tests used:
# [1] = biological target: T1, rat plasma vitamin D binding protein (Rattus norvegicus, UniProt P04276); assay: Affinity for rat plasma vitamin D binding protein (3H-25-hydroxyvitamin D3 competition, dextran coated charcoal); conditions: for 50% binding ability: amount of the test compound providing B/B0=0.5, 3H-25-hydroxyvitamin D3 as radioligand
# T1 construct: from tissue; host or cells: rat plasma
# T1 sequence (P04276 17-476): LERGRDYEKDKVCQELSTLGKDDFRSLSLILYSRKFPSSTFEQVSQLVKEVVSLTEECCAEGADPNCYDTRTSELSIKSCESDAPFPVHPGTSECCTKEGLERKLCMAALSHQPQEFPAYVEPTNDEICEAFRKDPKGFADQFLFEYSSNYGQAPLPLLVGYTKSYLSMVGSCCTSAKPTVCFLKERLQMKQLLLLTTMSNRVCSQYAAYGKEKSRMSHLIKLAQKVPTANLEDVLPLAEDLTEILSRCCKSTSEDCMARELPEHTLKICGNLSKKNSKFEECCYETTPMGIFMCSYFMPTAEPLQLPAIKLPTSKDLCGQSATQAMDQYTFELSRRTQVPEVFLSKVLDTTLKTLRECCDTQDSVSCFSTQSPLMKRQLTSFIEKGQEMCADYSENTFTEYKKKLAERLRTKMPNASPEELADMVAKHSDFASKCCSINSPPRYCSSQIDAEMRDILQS
# Procedure: A solution of a chick small intestine vitamin D receptor, or a solution of a rat plasma vitamin D binding protein was added, and the resulting mixture was left to stand. Then, a dextran coated charcoal solution was added, and the mixture was left to stand in ice cooling, and centrifuged. To the supernatant, a liquid scintillator was added, and the mixture was measured for radioactivity. B/B0 (B=the value of radioactivity measured upon addition of the test compound, B0=the value of radioactivity measured without addition of the test compound) was calculated to find the concentration of the test compound at which B/B0=0.5.
# (§1) (50% binding ability refers to the amount of the test compound providing B/B0=0.5)
# [2] = biological target: T2, chick small intestine vitamin D receptor (Gallus gallus, UniProt O42392); assay: Affinity for chick small intestine vitamin D receptor (3H-1α,25-dihydroxyvitamin D3 competition, dextran coated charcoal); format: binding; conditions: amount of the test compound providing B/B0=0.5; 3H-1α,25-dihydroxyvitamin D3 as radioligand
# T2 construct: A solution of a chick small intestine vitamin D receptor; from tissue; host or cells: chick small intestine
# T2 sequence (O42392 1-451): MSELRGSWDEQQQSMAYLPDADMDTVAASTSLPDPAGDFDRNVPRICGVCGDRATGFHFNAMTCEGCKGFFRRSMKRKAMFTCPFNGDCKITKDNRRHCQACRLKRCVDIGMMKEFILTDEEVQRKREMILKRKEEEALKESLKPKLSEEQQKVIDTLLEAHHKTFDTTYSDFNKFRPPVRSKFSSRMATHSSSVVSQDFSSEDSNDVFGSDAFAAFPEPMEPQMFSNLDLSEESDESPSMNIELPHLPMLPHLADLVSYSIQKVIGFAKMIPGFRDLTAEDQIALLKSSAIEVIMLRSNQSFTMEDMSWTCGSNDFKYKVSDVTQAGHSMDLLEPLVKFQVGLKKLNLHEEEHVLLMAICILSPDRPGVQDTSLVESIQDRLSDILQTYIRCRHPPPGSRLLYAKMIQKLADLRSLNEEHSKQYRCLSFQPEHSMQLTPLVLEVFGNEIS
# Procedure: A solution of a chick small intestine vitamin D receptor, or a solution of a rat plasma vitamin D binding protein was added, and the resulting mixture was left to stand. Then, a dextran coated charcoal solution was added, and the mixture was left to stand in ice cooling, and centrifuged. To the supernatant, a liquid scintillator was added, and the mixture was measured for radioactivity.
# as §1
structure (smiles),measurement,setting,value
"C=C1CC[C@H](O)C/C1=C/C=C1\CCC[C@]2(C)[C@@H]([C@H](C)CCCC(C)(C)O)CC[C@@H]12 [25-Hydroxyvitamin D3, 25-hydroxyvitamin D3]",Ratio,"[1]; affinity relative to 1,25-dihydroxyvitamin D3 = 1",129
same,50% binding ability,[1],0.209 ng
"C=C1/C(=C\C=C2/CCC[C@@]3(C)C2CC[C@@H]3[C@H](C)CCCC(C)(C)O)CC(O)C(OCCC(=O)OC)C1O (stereo partly drawn) [Compound 2, 2β-(2-methoxycarbonylethyloxy)-1α, 3β,25-trihydroxy-9,10-secocholesta-5,7,10(19)-triene]",50% binding ability,[2],0.455 ng
same,50% binding ability,[1],4 ng
